Reference: US20250129083A1, “IMIDAZOTETRAZINE COMPOUNDS AND TREATMENT OF TMZ-RESISTANT CANCERS” (THE BOARD OF TRUSTEES OF THE UNIVERSITY OF ILLINOIS, priority 2022, published 2025)
Read-outs that look alike come from different tables or passages of the source.

Tests used:
[1] = system: U87 GBM cell line; experiment: Cell viability assay (Alamar Blue, 7 days), U87; format: cell-based, human; details: Homo sapiens, 168 h, MGMT (−) MMR (+), 600 c/w, SEM, n=3, read-out: Activity, U87
Method: (§1) Cell Culture and Reagents. All cell lines were grown in a 37° C., 5% CO2, humidified environment, in media containing 1% penicillin/streptomycin. Stable cell line generation of GL261 MGMT+ was purchased from Creative Biogene. Cell culture conditions are as follows: cell lines U87, T98G, and RKO were grown in EMEM with 10% FBS. D54, GL261, GL261 MGMT+, and U118MG cell lines were grown in DMEM with 10% FBS. HCT116 cells were grown in RMPI with 10% FBS. D341 Med cells were grown in EMEM with 20% FBS. Temozolomide (TMZ) was purchased from AK Scientific. TMZ analogues were synthesized as described below. Compounds were dissolved in DMSO (1% final concentration, Fisher Chemical) for cell culture studies.
(§2) Cell Viability Assays. Cells were harvested, seeded in a 96-well plate and allowed to adhere. After three hours, compound was added to each well in DMSO (1% final concentration). Cells were incubated for seven days (unless otherwise noted) before viability was assessed by the Alamar Blue assay. Raptinal (20 μM) was used as a dead control.
(§3) Plated 1500 c/w for GL261; 600 c/w for U87; 600 c/w for U118MG; 1500 c/w for GL261 MGMT+ Incubated ovn and added 1 μL of compound in DMSO the next day. Incubated over 7 days; added Alamar Blue to assess cell viability and used 10 μM Raptinal as dead control. Error is SEM, n=3.

[2] = system: GL261 cells; experiment: Cell viability assay (Alamar Blue, 7 days), GL261; format: cell-based; details: Mus musculus, GL261, 168 h; MGMT (−) MMR (+); 7 days; 1500 c/w; SEM, n=3; read-out: Activity, GL261
Method: as §1, §2, §3

[3] = system: GL261 MGMT+ cells; experiment: Cell viability assay (Alamar Blue, 7 days), GL261 MGMT+; format: cell-based; details: Mus musculus, GL261, 168 h; MGMT (+) MMR (+); 7 days; 1500 c/w; SEM, n=3; read-out: Activity, GL261 MGMT+
Method: To further explore the ability of CPZ to evade MGMT-mediated resistance, MGMT-expressing T98G cells were pretreated with MGMT inhibitor O6BG followed by treatment with TMZ or CPZ. […] This cell death potentiation by TMZ upon treatment with an MGMT inhibitor was also observed in MGMT-expressing cell lines U118MG and RKO, whereas the efficacy of CPZ was again unaffected. For MGMT (−)/MMR (−) HCT116 cells, negligible potentiation of TMZ cytotoxicity was observed upon pretreatment with O6BG, confirming that loss of MMR capacity, not MGMT expression, was responsible for resistance to TMZ in HCT116 cells. Additionally, human MGMT was knocked into the MGMT-negative mouse glioma cell line, GL261, establishing the novel cell line GL261 MGMT+.
as §1, §2, §3

[4] = system: U118MG cells; experiment: Cell viability assay (Alamar Blue, 7 days), U118MG; format: cell-based; details: Homo sapiens, U-118-MG, 168 h, MGMT (+) MMR (+), 600 c/w, SEM, n=3
Method: as §1, §2, §3

[5] = system: HCT116 cells; experiment: Cell viability assay (Alamar Blue, 7 days), HCT116; format: cell-based; details: Homo sapiens, HCT-116, 168 h; MGMT (−) MMR (−); 7 days; read-out: Activity, HCT116
Method: as §1, §2

[6] = system: RKO colon cancer cell line; experiment: Cell viability assay (Alamar Blue, 7 days), RKO; format: cell-based; details: 168 h; 7 days; read-out: Activity, RKO
Method: as §1, §2

[7] = Hydrolytic stability studies; format: physicochemical; details: PBS, pH 7.4, 37° C.; HPLC
Method: Hydrolytic Stability Studies. Compound (100 μM) was incubated at 37° C. in PBS at pH 7.4 (unless otherwise noted). At the indicated time point, an aliquot was collected and analyzed by HPLC. Compound peaks were integrated and compared to the integration at to calculate the percentage of prodrug remaining.

[8] = system: S. typhimurium TA100 strain; experiment: Ames test, TA100; format: cell-based; details: 30 μM
Method: (§4) Next, we measured the mutagenicity of CPZ versus TMZ. TMZ and other DNA methylating chemotherapies are known mutagens, inducing G:C→A:T mutations due to erroneous recognition of O^6-methylguanine. […] CPZ and TMZ (at 30 μM) were also assessed in the E. coli WP2 uvrA pKM101 strain, which is considered one of the more sensitive Ames tester strains available.
Ames Test. Compounds were assessed at the indicated concentrations in the TA100 tester strain using the Muta-ChromoPlate 96-well microplate version of the Ames test (Environmental Bio-Detection Products, Prod. No. 5051) according to manufacturer's instructions. In brief, TA100 S. typhimurium bacteria were grown overnight and plated with compound, growth medium, and indicator (no S9 activation) in 96 well plates. Bacteria were incubated for 5 days before the number of wells per 96 well plate containing revertant colonies were identified colorimetrically.

[9] = system: E. coli WP2 uvrA pKM101 strain; experiment: Ames test, E. coli WP2 uvrA pKM101; format: cell-based; details: 30 μM
Method: as §4

[10] = Maximum tolerated dose / tolerability in mice; format: in vivo; details: for MTD at 5 days: in vivo, 66 mg/kg, once per day over 5 days
[11] = Solubility in IV formulations; format: physicochemical; details: IV formulation
[12] = Hepatic metabolism: stability in mouse liver microsomes; format: in vitro ADME
[13] = Brain tissue binding; format: in vitro ADME; details: 10 uM, 1 h at 37 C in brain tissue homogenate
[14] = Syngeneic subcutaneous model; format: in vivo; details: C57BL/6 mice, 1×10^6 cells; 50 mg/kg IV 1×/day over 5 days from day 5
Method: FIG. 10A-B. Syngeneic Subcutaneous Model (A, B). TABZ and TMZ in vivo: C57BL/6 mice were inoculated with 1×10^6 cells and treated xl/day over 5 days with either vehicle, TMZ, or TABZ (via IV, 50 mg/kg, starting on day 5).

[15] = system: cancer cells; experiment: Rapid cancer cell death phenotype; format: cell-based; details: relative to TMZ
From the text: FIG. 8A-C. Rapid Cancer Cell Death Phenotype.

[16] = 6.6 mg/mL solution for 200 μL injection

Structure (SMILES): CC#CCn1nnc2c(C(=O)N(C)C)ncn2c1=O [TABZ, 3-(but-2-yn-1-yl)-N,N-dimethyl-4-oxo-3,4-dihydroimidazo[5,1-d][1,2,3,5]tetrazine-8-carboxamide]
- IC50 [1]: 16 ± 2 µM
- IC50 [2]: 35 ± 2 µM
- IC50 [3]: 18 ± 1 µM
- IC50 [4]: 24 ± 5 µM
- IC50 [5]: 6 ± 0.42 µM
- IC50 [6]: 9 ± 1 µM
- Hydrolytic stability: percentage of prodrug remaining after 2 hours [7]: 31±1%
- Mutagenicity, TA100 [8]: non-mutagenic
- Mutagenicity, E. coli WP2 uvrA pKM101 [9]: non-mutagenic
- Tolerated dose, 1×/day via IV injection [10]: 50 mg/kg
- MTD at 5 days ([10]; female, C57BL/6, mouse, ip, intraperitoneal, read-out: MTD, I.P.): 66 mg/kg
- MTD at 5 days ([10]; mouse, intravenous, read-out: MTD, I.V.): 66 mg/kg
- Solubility in 20/80 DMSO/PBS ([11]; 5 mg/mL solution for 100 μL injection): Soluble*
- Solubility in 15/7/5/73 DMSO/NMP/T20/20% SPE-βCD [11, 16]: Soluble >25 min
- Solubility in 15/10/75 DMSO/NMP/20% SPE-βCD [11, 16]: Soluble 20 min
- Stability (2 h, with MLM) ([12]; percentage remaining relative to t0, mouse liver microsomes, SEM, n ≥ 2): 77 ± 2%
- Stability (2 h, no MLM) ([12]; percentage remaining, microsomes replaced with PBS): 87 ± 2%
- Brain tissue binding, insoluble fraction, tissue homogenizer [13]: 40 ± 4%
- Brain tissue binding, insoluble fraction, ultrasonication [13]: 39 ± 4%
- Brain tissue binding, soluble fraction, tissue homogenizer [13]: 64 ± 4%
- Brain tissue binding, soluble fraction, ultrasonication [13]: 61 ± 4%
- Tumor growth [14]: no exacerbation
- Speed of cell death induction [15]: induce cell death quickly relative to TMZ
